Consider one compound from US6699459B2, “Methods of treating lung inflammation” (The Board of Regents of the University of Texas System, priority 2001, dated 2004).

Each structure is given as a SMILES string.

Common to all, as to assay type: cell-based, human
One data set relates to IRF-1 GAS. Nature of the data set: EMSA of IRF-1 GAS binding complexes, nuclear extracts of RSV-infected A549 cells. Conditions: RSV 6 hours, 400 μM. The protocol: (§1) Electrophoretic mobility shift assay (EMSA): Nuclear extracts of uninfected and infected A549 cells were prepared using hypotonic/nonionic detergent lysis, as previously described (20). Proteins were normalized by protein assay (Protein Reagent, Bio-Rad, Hercules, Calif.) and used to bind to a duplex oligonucleotide corresponding to the IRF-1 gamma interferon activated sequence (GAS) and IRF-7 ISRE, whose sequences are shown below.
(§2) DNA-binding reactions contained 10-15 μg nuclear proteins, 5% glycerol, 12 mM HEPES, 80 mM NaCl, 5 mM DTT, 5 mM Mg2Cl, 0.5 mM EDTA, 1 μg of poly dI-dC and 40,000 cpm of ^32P-labeled double-stranded oligonucleotide in a total volume of 20 μl. The nuclear proteins were incubated with the probe for 15 minutes at room temperature and then fractionated by 4% nondenaturing polyacrylamide gels (PAGE) in 0.5× TBE buffer (22 mM Tris-HCl, 22 mM boric acid, 0.25 MM EDTA, pH 8), at 120 volts. After electrophoretic separation, gels were dried and exposed for autoradiography using Kodak XAR film at −70° C. using intensifying screens. In the gel mobility supershift, commercial antibodies against specific transcription factors were added to the binding reactions and incubated on ice for one hour prior to fractionation on 6% PAGE.
A general note: Mobility shift assays separate free from complexed probe on a gel.

Another data set concerns IRF-7 ISRE. Nature of the data set: EMSA of IRF-7 ISRE binding complexes, nuclear extracts of RSV-infected A549 cells. Conditions: all time points, 400 μM. How it is done:
as §1, §2

The test system of the next data set is IRF-1 mRNA. Nature of the data set: Northern blot of IRF-1 mRNA in RSV-infected A549 cells. The conditions noted are these: 400 μM. How it is done: Northern Blot. Total RNA was extracted from control and infected A549 cells by the acid guanidium thiocyanate-phenol chloroform method (18). Twenty micrograms of RNA were fractionated on a 1.2% agarose-formaldehyde gel, transferred to nylon membranes and hybridized to a radiolabeled RANTES, IRF-1, -3 and -7 cDNAs, as previously described (19). Hybridization temperature for all probes was 55° C. After washing, membranes were exposed for autoradiography using Kodak XAR film at −70° C. using intensifying screens. After exposure, membranes were stripped and rehybridized with a β-actin probe.

A further data set relates to A549 cells. Briefly: Total number of cells and cell viability by trypan blue exclusion. Conditions: 400 μM, data not shown. The protocol:
(§3) Cell culture and infection of epithelial cells with RSV. A549, human alveolar type II-like epithelial cells (ATCC, Manassas, Va.), were maintained in F12K medium containing 10% (v/v) fetal bovine serum (FBS), 10 mM glutamine, 100 IU/ml penicillin and 100 μg/ml streptomycin. Small alveolar epithelial cells (SAE) were obtained from Clonetics (San Diego, Calif.) and grown according to the company instructions. Cell monolayers were infected with RSV at multiplicity of infection (MOI) of 1 (unless otherwise stated), as described (17). An equivalent amount of a 20% sucrose solution was added to uninfected A549 cells, as a control. For the antioxidant experiments, cells were pretreated with the antioxidants for one hour and then infected in the presence of the antioxidants. Since BHA was diluted in ethanol, equal amounts of ethanol were added to untreated cells, as a control. Total number of cells, cell viability and viral replication, following antioxidant treatment, were measured by trypan blue exclusion and by plaque assay, respectively.

The next data set has as its system RANTES mRNA. Briefly: Northern blot of RANTES mRNA in RSV-infected A549 cells. Conditions: 400 μM. The protocol:
as §3, with “respectively. Northern Blot. Total RNA was extracted from control and infected A549 cells by the acid guanidium thiocyanate-phenol chloroform method (18). Twenty micrograms of RNA were fractionated on a 1.2% agarose-formaldehyde gel, transferred to nylon membranes and hybridized to a radiolabeled RANTES, IRF-1, -3 and -7 cDNAs, as previously described (19). […]” for “respectively.”

The next data set has as its system IRF-3. Nature of the data set: Western blot of nuclear IRF-3 in RSV-infected A549 cells. The protocol:
Western Immunoblot. Total cell lysates and cytoplasmic and nuclear proteins were prepared as previously described, fractionated by SDS-PAGE and transferred to PVDF membrane (20). Membranes were blocked with 5% albumin in TBS-Tween and incubated overnight with a rabbit polyclonal antibody to IRF-1, -3 and -7 (Santa Cruz Biotech, Santa Cruz, Calif.). For secondary detection, a horseradish-coupled anti-rabbit or anti-mouse antibody was used in the enhanced chemiluminescence assay (Amersham Pharmacia Biotec, Arlington Heights, Ill.).

A further data set relates to ROS. Briefly: H2O2-induced ROS production in A549 cells (DCF oxidation). Conditions: 200 μM H2O2, 400 μM BHA. How it is done: Assesment of intracellular ROS generation. A549 cells were grown in 96-well tissue culture plates and infected with RSV, at 0.1, 0.5 and 1 multiplicity of infection (MOI). At different times post-infection, cells were washed with Hank's Balanced Salt Solution (HBSS) and loaded with 10 μM 2,7 dichlorofluorescein diacetate (DCF-DA) in HBSS medium containing 25 mM HEPES, pH 7.4, for 30 minutes at 37° C. The cells were then washed twice and fluorescence intensity was determined at 485 nm excitation and 590 nm emission, using an automated fluorescence reader (Flurocount, Hewlett-Packard Instruments, IL). For the experiments in which H2O2 was used as a stimulus for ROS production, cells were preloaded with […] DCF-DA for 30 minutes, washed and then fluorescence intensity was measured at different times following addition of H2O2. Measurements were performed in triplicate and results expressed as fluorescence mean±S.D. of n=3 independent experiments.

For the compound `COc1ccc(O)c(C(C)(C)C)c1` [BHA, butylated hydroxyanisol], the “RSV-induced STAT binding to the IRF-1 GAS” value in the data set with IRF-1 GAS is “completely abolished”. Also, the “binding of the RSV-inducible complexes to the IRF-7 ISRE probe” value in the data set with IRF-7 ISRE was “greatly reduced”. Further, the “IRF-1 mRNA accumulation” value is “almost completely blocked” in the data set with IRF-1 mRNA (6 and 12 hours post-infection); “significantly reduced” with IRF-1 mRNA (24 hours post-infection). The “total cell number and viability” value in the data set with A549 cells is on record as “unchanged”. Further, the “RSV-induced RANTES mRNA induction” value in the data set on RANTES mRNA (6 and 12 hours post-infection) was “completely inhibited”; in the data set with RANTES mRNA (24 hours post-infection), “greatly reduced”. Further, in the data set with IRF-3, the “the other RSV-inducible nuclear form of IRF-3” value is recorded as “not affected”. Besides, the “H2O2-induced ROS production” value with ROS is recorded as “almost completely inhibited”.
